Assays:
Format in all cases: cell-based, human
Hes-1 = experiment: Quantitative RT-PCR of Notch1 target gene Hes-1 in OPM-2 cells; conditions: OPM-2 cells treated with GSI15
Protocol: Quantitative real-time reverse transcription-PCR (RT-PCR) analysis was performed using the following primer/probe sets: human Hes-1 (forward—[…], reverse—[…], probe—FAM-[…]-TAMRA) human TRAP5 (forward—[…], reverse—[…], probe FAM-[…]-TAMRA), human beta2-microglobulin (forward—ccc cca ctg aaa aag atg ag, reverse—atc caa tcc aaa tgc ggc, probe—FAM-CCTGCCGTGTGAACCATGTGACTTT-TAMRA) served as normalizer. Total RNA was extracted from MM cells, human osteoclasts or human osteoblasts using RNeasy Mini Kit (Qiagen, Hilden, Germany) following the manufacturer's instructions. For the RT-PCR reaction SuperScript™ III Platinum® One-Step Quantitative RT-PCR System (Invitrogen, Karlsruhe, Germany) was used. 50 ng total RNA were used per reaction, each RNA sample was analyzed in three replicates. PCR conditions (40 cycles) were the following: reverse transcription at 50° C. for 30 minutes, initial denaturation at 95° C. for 10 minutes, followed by 40 cycles of 45 seconds denaturation at 95° C. and 60 seconds annealing/extension at 62° C. Amplification of the house-keeping gene beta2-microglobulin was used to normalize the expression data. Normalized mRNA expression data were then calculated as values relative to the respective untreated sample.

OPM-2 cells = experiment: Cell cycle analysis (propidium iodide), sub-G1 fraction, OPM-2; conditions: OPM-2, after 72 h
Protocol: The compound according to example 1, hereinafter referred to as GSI15, (compound RH02015SC, Maybridge, Acros Organics, Geel, Belgium) was freshly dissolved as 26 mM stock solution in Dimethylsulfoxide (DMSO). Multiple myeloma therapeutics used were melphalan (marketed as Alkeran®, GlaxoSmithKline, Munich, Germany) and bortezomib (marketed as Velcade®, Janssen-Cilag, Neuss, Germany). Melphalan was freshly dissolved at 10 mg/ml in 0.9% NaCl-solution. Bortezomib was freshly dissolved at 100 ng/ml in 0.9% NaCl solution. Gamma Secretase Inhibitor (GSI) treatment for apoptosis assessment by AnnexinV/PI staining, cell cycle analysis and coculture experiments was performed in 6-well plates. GSI15 stock solution was added directly to the cell suspension. GSI treatment for assaying proliferation was performed in 96-well plates. […]
For cell cycle analysis 2×10^5 cells were spun down, medium was aspirated and cells washed with PBS. […] After 10 minutes incubation in the dark at room temperature, cells were analyzed by flow cytometry. The amount of apoptotic cells was determined by AnnexinV/propidium iodide staining using Human AnnexinV-FITC Kit (Bender Medsystems, Vienna, Austria), according to manufacturer's protocol. […] Cells were then spun down again, resuspended in binding buffer containing PI and analyzed by flow cytometry.

LP-1 cells = experiment: Proliferation assay (CellTiter-Glo), LP-1; conditions: LP-1, 48 h treatment
Protocol: Human MM cell lines used were as follows: NCI-H929, OPM-2, LP-1, RPMI-8226, U266 (DSMZ, Braunschweig, Germany). Cell lines were cultured in RPMI 1640 medium (Biochrom, Berlin, Germany) supplemented with 10% heat-inactivated fetal calf serum (FCS, Gibco, Karlsruhe, Germany), 1 mM sodium pyruvate and 100 units/ml penicillin and 100 μg/ml streptomycin (Gibco). Human osteoclasts were obtained as described in the reference of Zavrski I, Krebbel H, Wildemann B, et al. Proteasome inhibitors abrogate osteoclast differentiation and osteoclast function. Biochem Biophys Res Commun. 2005; 333:200-205. Briefly, peripheral blood mononuclear cells (PBMC) were isolated from whole blood of healthy volunteers, using a Ficoll-Hypaque density gradient. The adherent fraction of the isolated mononuclear cells was cultured for 21 days in MEM medium (Sigma-Aldrich Chemie, Taufkirchen, Germany) supplemented with 10% FCS, 100 U/ml penicillin, 100 μg/ml streptomycin, 50 ng/ml M-CSF, and 25 ng/ml RANKL (osteoclastogenic medium), before coculture experiments and treatment with the inventive compounds started. […]
For assaying proliferation/viability of cells CellTiter-Glo Luminescent Cell Viability Assay (Promega, Mannheim, Germany) was used. In this assay the number of viable cells at a given time point is determined by quantification of ATP present, which serves as a measure of metabolically active cells. […]

In the case of `CC(C)c1ccc(S(=O)(=O)Nc2cccnc2Oc2ccc(Cl)cc2)cc1` [Example 1, N-(2-(4-chlorophenoxy)pyridin-3-yl)-4-isopropylbenzenesulfonamide], the “Hes-1 expression (Notch1 target gene)” value (Hes-1) is reported as “dose-dependently downregulated”, the sub-G1 fraction (OPM-2 cells) is reported as “increase in the sub-G1 fraction” and the “concentration of maximum effect on proliferation” value (LP-1 cells) is reported as 60 µM. The proliferation (LP-1 cells) was “dose-dependent reduction of proliferation”.

— patent publication US20110251220A1, “Pharmaceutical compositions comprising gamma secretase modulators” (priority 2008, published 2011)
